This is an account of results in patent US11999746B2, “Compounds” (GlaxoSmithKline Intellectual Property Development Limited, priority 2014, dated 2024).

Where a name gives a salt, the structure may show the parent alone. Read-outs that look alike come from different tables or passages of the source.

The target of assay [1] is T1, Lp-PLA2 in human plasma (Homo sapiens, UniProt Q13093).
T1 construct: from tissue; host or cells: pooled human plasma
T1 sequence (Q13093 22-441): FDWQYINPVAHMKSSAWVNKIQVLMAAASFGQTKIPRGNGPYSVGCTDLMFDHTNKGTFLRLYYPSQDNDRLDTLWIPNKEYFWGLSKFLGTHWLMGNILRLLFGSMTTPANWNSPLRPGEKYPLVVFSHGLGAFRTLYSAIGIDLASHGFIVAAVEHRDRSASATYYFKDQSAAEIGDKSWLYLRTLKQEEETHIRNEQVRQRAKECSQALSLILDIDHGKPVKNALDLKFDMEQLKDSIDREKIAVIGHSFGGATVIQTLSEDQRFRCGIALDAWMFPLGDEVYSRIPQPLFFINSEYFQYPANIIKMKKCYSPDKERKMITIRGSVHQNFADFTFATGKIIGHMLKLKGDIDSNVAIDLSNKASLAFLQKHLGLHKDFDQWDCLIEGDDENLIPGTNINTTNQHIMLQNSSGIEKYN
Nature of the assay: (3b) Lp-PLA2 human plasma alternative Thio-PAF assay. Type of assay: biochemical. To be noted: pooled human plasma, read-out: pIC50 in the Lp-PLA2 human plasma assay (converted). Here is the method:
(3b) Alternative Thio-PAF Assay
The human plasma assay utilizes the same thioester analog of PAF as described in (1b) “hr ThioPAF” assay. This assay may detect the activity of Lp-PLA2 in human plasma, as determined by specific inhibition by Lp-PLA2 inhibitors.
The thio-PAF assay was run as a quenched 20 μL assay. Compounds source plate was prepared by making 1:3 (by volume) serial dilution of the compounds into pure DMSO on 96-well microplate. 5 μL of compounds on compound source plate were transferred to 96-well Corning 3686 (black) low-volume plates by STAR+(Hamilton) liquid dispenser. 10 μL pooled human plasma, which was previously aliquoted and frozen, was added. Plates were centrifuged for 30 sec at 1000 rpm. After 15 minutes preincubation at room temperature, 5 μL of substrate solution comprising 2 mM 2-thio-PAF [from ethanol stock], 52 μM CPM [from a DMSO stock] and 2.5 mM NEM (N-ethylmaleimide) [made fresh daily in DMSO] in assay buffer (50 mM HEPES, pH 7.4, 150 mM NaCl, 1 mM CHAPS) was added to 96-well Corning 3686 (black) low-volume plates. After 3 mins, reaction was quenched with 10 μL of 5% aqueous trifluoroacetic acid (TFA). Plates were centrifuged 30 sec at 1000 rpm, covered to protect from light and incubated for 10 min at room temperature. Plates were read at ex: 380 nm/em: 485 nm using Envision plate reader (Perkin Elmer). Raw data were transferred to Excel software and pIC50 data, curve and QC analysis was conducted by using XL fit module in Excel.

The target of assay [2] is T2, recombinant human Lp-PLA2 (Homo sapiens, UniProt Q13093).
T2 sequence (Q13093 22-441): T1 sequence (Q13093 22-441)
Description: (1b) hrThioPAF assay, recombinant human Lp-PLA2. To be noted: Examples 266-412 were tested here, one experiment or average of multiple experiments, read-out: rhLp-PLA2 (pIC50) (converted). Type of assay: biochemical. The procedure, abridged: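 Fluorogenic assay: 20 pM rhLp-PLA2 in 50 mM HEPES pH 7.4, 150 mM NaCl, 1 mM CHAPS with 1:3 serially diluted compounds; substrate mix of 40 μM 2-thio-PAF, 40 μM CPM, 400 μM NEM (pre-addition levels). 20 min at 25 °C in the dark; fluorescence ex 380/em 485 nm, pIC50 by curve fitting.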

Where [3] appears, read: (3b) alternative Thio-PAF assay, Examples of 266-412 were tested here.

Take `O=C(O)C(F)(F)F.[2H]C1([2H])C2CNCCN2c2cc(OCc3ccc(F)c(C#N)c3)nc(=O)n21` (centres unmarked) [Example E269, 5-(((11,11-Dideutero-9-oxo-2,3,4,9,11,11a-hexahydro-1H-pyrazino[1′,2′:3,4]imidazo [1,2-c]pyrimidin-7-yl)oxy)methyl)-2-fluorobenzonitrile 2,2,2-trifluoroacetate]: the IC50 in assay [1] (setting [3]) is not above 100 nM; in assay [2] it was not above 10000 nM.

Regarding `O=c1nc(OCc2cc(F)c(Oc3ccnc(C(F)(F)F)c3)c(F)c2)cc2n1C[C@@H]1C[C@H](O)CN21` [Example E383, (7S,8aS)-3-((3,5-Difluoro-4-((2-(trifluoromethyl)pyridin-4-yl)oxy)benzyl)oxy)-7-hydroxy-7,8,8a,9-tetrahydropyrrolo[1′,2′:3,4]imidazo[1,2-c]pyrimidin-1(6H)-one], the IC50 was not above 100 nM in assay [1] (setting [3]) and not above 1 nM in assay [2].

`NC1(C(=O)N2CCN3c4cc(OCc5ccc(F)c(F)c5)nc(=O)n4CC3C2)CCC1` (centres unmarked) [Example E344, 2-(1-Aminocyclobutanecarbonyl)-7-((3,4-difluorobenzyl)oxy)-3,4,11,11a-tetrahydro-1H-pyrazino[1,2′:3,4]imidazo[1,2-c]pyrimidin-9(2H)-one]: the IC50 in assay [1] (setting [3]) was not above 100 nM; in assay [2] it was not above 10000 nM.

On to `N[C@H]1C[C@@H]2Cn3c(cc(OCc4cc(F)c(Oc5ccnc(C(F)(F)F)c5)c(F)c4)nc3=O)N2C1` [Example E388, (7S,8aR)-7-Amino-3-((3,5-difluoro-4-((2-(trifluoromethyl)pyridin-4-yl)oxy)benzyl)oxy)-7,8,8a,9-tetrahydropyrrolo[1′,2′:3,4]imidazo[1,2-c]pyrimidin-1(6H)-one], for which the IC50 in assay [1] (setting [3]) is not above 100 nM; in assay [2], not above 1 nM.

With `CC(C)(N)CC(=O)N1CCN2c3cc(OCc4ccc(F)c(C#N)c4)nc(=O)n3CC2C1` (centres unmarked) [Example E298, 5-(((2-(3-Amino-3-methylbutanoyl)-9-oxo-2,3,4,9,11,11a-hexahydro-1H-pyrazino[1′,2′:3,4]imidazo[1,2-c]pyrimidin-7-yl)oxy)methyl)-2-fluorobenzonitrile 2,2,2-trifluoroacetate], the IC50 in assay [1] (setting [3]) was not above 100 nM; in assay [2] it was not above 10000 nM.

With `COC(=O)N1CCN2c3cc(OCc4ccc(F)c(F)c4)nc(=O)n3CC2C1` (centres unmarked) [Example E300, Methyl 7-((3,4-difluorobenzyl)oxy)-9-oxo-3,4,11,11a-tetrahydro-1H-pyrazino[1′,2′:3,4]imidazo[1,2-c]pyrimidine-2(9H)-carboxylate], the IC50 in assay [1] (setting [3]) was not above 100 nM; in assay [2], not above 10000 nM.

Regarding `O=c1nc(OCc2cc(F)c(Oc3ccnc(C(F)(F)F)c3)c(F)c2)cc2n1CC1CNCCN21` (centres unmarked) [Example E270, 7-((3,5-Difluoro-4-((2-(trifluoromethyl)pyridin-4-yl)oxy)benzyl)oxy)-3,4,11,11a-tetrahydro-1H-pyrazino[1′,2′:3,4] imidazo [1,2-c]pyrimidin-9(2H)-one], the IC50 in assay [1] (setting [3]) was not above 100 nM; in assay [2] it was not above 10000 nM.

Take `CN(C)CCC(=O)N1CCN2c3cc(OCc4ccc(F)c(F)c4)nc(=O)n3CC2C1` (centres unmarked) [Example E337, 7-((3,4-Difluorobenzyl)oxy)-2-(3-(dimethylamino)propanoyl)-3,4,11,11a-tetrahydro-1H-pyrazino[1,2′:3,4]imidazo[1,2-c]pyrimidin-9(2H)-one]: the IC50 is not above 100 nM in assay [1] (setting [3]) and not above 10000 nM in assay [2].

Consider `O=C([C@@H]1C[C@H](F)CN1)N1CCN2c3cc(OCc4ccc(F)c(F)c4)nc(=O)n3CC2C1` (stereo partly drawn) [Example E341, 7-((3,4-Difluorobenzyl)oxy)-2-((2S,4S)-4-fluoropyrrolidin-2-carbonyl)-3,4,11,11a-tetrahydro-1H-pyrazino[1′,2′:3,4]imidazo[1,2-c]pyrimidin-9(2H)-one], for which the IC50 in assay [1] (setting [3]) was not above 100 nM; in assay [2], not above 10000 nM.

On to `CCCN1CCN2c3cc(OCc4ccc(F)c(F)c4)nc(=O)n3CC2C1` (centres unmarked) [Example E304, 7-((3,4-Difluorobenzyl)oxy)-2-propyl-3,4,11,11a-tetrahydro-1H-pyrazino[1′,2′:3,4]imidazo[1,2-c]pyrimidin-9(2H)-one], for which the IC50 in assay [1] (setting [3]) was not above 100 nM; in assay [2] it was not above 10000 nM.

As to `CS(=O)(=O)N1CCN2c3cc(OCc4ccc(F)c(F)c4)nc(=O)n3CC2C1` (centres unmarked) [Example E313, 7-((3,4-Difluorobenzyl)oxy)-2-(methylsulfonyl)-3,4,11,11a-tetrahydro-1H-pyrazino[1′,2′:3,4]imidazo[1,2-c]pyrimidin-9(2H)-one], the IC50 in assay [1] (setting [3]) and in assay [2] was not above 100 nM in each case.

Consider `CC(=O)N1CCC2(CC1)Cn1c(cc(OCc3ccc(F)c(F)c3)nc1=O)N2C(C)=O` [Example 408, 1,1-(7-((3,4-difluorobenzyl)oxy)-5-oxo-1H-spiro[imidazo[1,2-c]pyrimidine-2,4′-piperidin]-1,1′(3H,5H)-diyl)diethanone], for which the IC50 is not above 100 nM in assay [1] (setting [3]) and not above 10000 nM in assay [2].

For the compound `CC(=O)N1CCN2c3cc(OCc4ccc(F)c(F)c4)nc(=O)n3CC2C1` (centres unmarked) [Example E315, 2-Acetyl-7-((3,4-difluorobenzyl)oxy)-3,4,11,11a-tetrahydro-1H-pyrazino[1′,2′:3,4]imidazo[1,2-c]pyrimidin-9(2H)-one], the IC50 in assay [1] (setting [3]) and in assay [2] was not above 100 nM each time.

Take `O=c1nc(OCc2cc(F)c(Oc3cncc(C(F)(F)F)c3)c(F)c2)cc2n1CC1CS(=O)(=O)CCN21` (centres unmarked) [Example E373, 7-((3,5-Difluoro-4-((5-(trifluoromethyl)pyridin-3-yl)oxy)benzyl)oxy)-3,4,11,11a-tetrahydropyrimido[6′,1′:2,3]imidazo[5,1-c][1,4]thiazin-9(1H)-one 2,2-dioxide]: the figures for the IC50 in assay [1] (setting [3]) and in assay [2] were not above 100 nM and not above 10000 nM, respectively.

`N#Cc1cc(COc2cc3n(c(=O)n2)CC2(CCN(Cc4ccccc4)CC2)N3)ccc1F` [Example 412, 5-(((1′-Benzyl-5-oxo-3,5-dihydro-1H-spiro[imidazo[1,2-c]pyrimidine-2,4′-piperidin]-7-yl)oxy)methyl)-2-fluorobenzonitrile]: the IC50 in assay [1] ((3a) Thio-PAF assay, Examples 1-265 and 413-430 were tested here) is not above 10000 nM; in assay [2], not above 10000 nM.

On to `N#Cc1cc(COc2cc3n(c(=O)n2)CC2CN(CC(=O)O)CCN32)ccc1F` (centres unmarked) [Example E324, 2-(7-((3-Cyano-4-fluorobenzyl)oxy)-9-oxo-3,4,11,11a-tetrahydro-1H-pyrazino[1,2′:3,4]imidazo[1,2-c]pyrimidin-2(9H)-yl)acetic acid, trifluoroacetic acid Salt], for which the IC50 is not above 100 nM in assay [1] (setting [3]) and not above 10000 nM in assay [2].

As to `CS(=O)(=O)N1CCN2c3cc(OCc4ccc(F)c(C#N)c4)nc(=O)n3CC2C1` (centres unmarked) [Example E286, 2-Fluoro-5-(((2-(methylsulfonyl)-9-oxo-2,3,4,9,11,11a-hexahydro-1H-pyrazino[1′,2′:3,4]imidazo[1,2-c]pyrimidin-7-yl)oxy)methyl)benzonitrile hydrochloride], the IC50 in assay [1] (setting [3]) is not above 100 nM; in assay [2], not above 10000 nM.

As to `N#Cc1cc(COc2cc3n(c(=O)n2)CC2CN(C(=O)C4(N)CC4)CCN32)ccc1F` (centres unmarked) [Example E297, 5-(((2-(1-Aminocyclopropanecarbonyl)-9-oxo-2,3,4,9,11,11a-hexahydro-1H-pyrazino[1′,2′:3,4]imidazo[1,2-c]pyrimidin-7-yl)oxy)methyl)-2-fluorobenzonitrile 2,2,2-trifluoroacetate], the IC50 in assay [1] (setting [3]) was not above 100 nM; in assay [2], not above 10000 nM.

Regarding `N#Cc1cc(COc2cc3n(c(=O)n2)C[C@H]2C[C@H](N)CN32)ccc1F` [Example E386, 5-((((7S,8aR)-7-Amino-1-oxo-1,6,7,8,8a,9-hexahydropyrrolo[1,2′:3,4]imidazo[1,2-c]pyrimidin-3-yl)oxy)methyl)-2-fluorobenzonitrile], the IC50 in assay [1] (setting [3]) was not above 100 nM; in assay [2], not above 10000 nM.
